# Measured values published in publication PMC9511441, “Semisynthetic teicoplanin derivatives with dual antimicrobial activity against SARS-CoV-2 and multiresistant bacteria” (Scientific Reports, 2022).
# Where two headings read alike, the source gives them in different places.
# What was measured:
# SARS-CoV-2 pseudovirus = experiment: microbe, parasite or virus in culture; type: cell-based; details: cathepsin-dependent endosomal pathway
# [1] = tested on: Acinetobacter baumannii ATCC BAA1605; experiment: MIC against Gram-negative strain; details: Acinetobacter baumannii, ATCCBAA1605
# [2] = biological target: T1, human recombinant cathepsin L (Homo sapiens, UniProt P07711); experiment: biochemical; type: biochemical
# T1 construct: made in house; host or cells: Escherichia coli
# HCoV-229E = experiment: CPE reduction assay, HCoV-229E in HEL cells; type: cell-based
# S. aureus ATCC29213 [3] = experiment: Fluorescent competition assay, release of fluorescent vancomycin; details: cells saturated with FL-VAN, Fig. 7 left panel
# S. epidermidis = experiment: microbe, parasite or virus in culture; type: cell-based; details: Staphylococcus epidermidis
# E. faecium = experiment: microbe, parasite or virus in culture; type: cell-based; details: for MIC: Enterococcus faecium
# S. aureus ATCC29213 [4] = experiment: Fluorescent competition assay, release of fluorescent teicoplanin; type: binding; details: cells saturated with FL-TEI, Fig. 7 right panel
# [5] = tested on: Escherichia coli ATCC 25218; experiment: MIC against Gram-negative strain; details: ATCC25218
# [6] = tested on: Klebsiella pneumoniae ST258 clone K 160/09; experiment: MIC against Gram-negative strain; details: Klebsiella pneumoniae
# VeroE6 cells = experiment: Cytotoxicity in mock-infected VeroE6 cells (XTT); type: cell-based, African green monkey; details: mock-infected Vero E6 cells, three days, XTT
# Calu-3 cells = experiment: Cytotoxicity in mock-infected Calu-3 cells (XTT); details: read-out: CC50, Calu-3 cells, three days
# S. haemolyticus = experiment: MIC, broth microdilution; type: cell-based; details: Staphylococcus haemolyticus
# S. aureus = experiment: MIC, broth microdilution; type: cell-based; details: Staphylococcus aureus
# E. faecalis = experiment: MIC, broth microdilution; type: cell-based; details: Enterococcus faecalis
# S.pyogenes = experiment: MIC, broth microdilution; type: cell-based; details: Streptococcus pyogenes
# [7] = tested on: Pseudomonas aeruginosa ATCC 27853; experiment: MIC against Gram-negative strain; details: ATCC27853
# HEL cells = experiment: Cytotoxicity in mock-infected HEL cells (MTS); type: cell-based, human; details: mock-infected HEL cells, MTS, mean of 2–3 tests
# T1 sequence (P07711 114-333): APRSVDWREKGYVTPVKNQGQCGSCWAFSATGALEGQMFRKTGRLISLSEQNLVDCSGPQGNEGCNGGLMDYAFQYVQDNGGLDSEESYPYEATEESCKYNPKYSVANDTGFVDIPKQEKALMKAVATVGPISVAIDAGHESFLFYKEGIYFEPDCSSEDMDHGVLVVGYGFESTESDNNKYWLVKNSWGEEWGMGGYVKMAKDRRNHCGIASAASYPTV
smiles,measurement,setting,value
CC(=O)N[C@H]1[C@H](O[C@@H]2c3ccc(c(Cl)c3)Oc3cc4cc(c3O)Oc3ccc(cc3Cl)C[C@H]3NC(=O)[C@H](NC(=N)N)c5ccc(O)c(c5)Oc5cc(O)cc(c5)[C@H](NC3=O)C(=O)N[C@H]4C(=O)N[C@H]3C(=O)N[C@@H]2C(=O)N[C@H](C(=O)O)c2cc(O)cc(O)c2-c2cc3ccc2O)O[C@H](CO)[C@@H](O)[C@@H]1O [Compound 6],Inhibition of pseudovirus entry in Vero cells (in words),SARS-CoV-2 pseudovirus,moderately active
same,MIC,[1],128 µg/mL
same,Cathepsin L inhibition (in words),[2],did not prove to be an inhibitor
same,IC50,"[2]; read-out: Cathepsin L IC50, pH 5.5, Z-Phe-Arg-AMC substrate",> 500 µM
same,Activity against HCoV-229E CPE (in words),HCoV-229E,only modest activity
same,Outcompeting fluorescent vancomycin from S. aureus (in words),S. aureus ATCC29213 [3],highly effective at outcompeting fluorescent vancomycin
same,MIC,"S. epidermidis; read-out: Average MIC value, S. epidermidis mecA, 6 strains",0.1 µg/mL
same,MIC,"S. epidermidis; read-out: MIC value, S.epidermidis ORI_R1, mecA",0.0625 µg/mL
same,MIC,"S. epidermidis; read-out: MIC value, S.epidermidis ORI_R2, mecA",0.125 µg/mL
same,MIC,"S. epidermidis; read-out: MIC value, S.epidermidis ORI_R3, mecA",0.0625 µg/mL
same,MIC,"S. epidermidis; read-out: MIC value, S.epidermidis ORI_R4, mecA",0.0625 µg/mL
same,MIC,"S. epidermidis; read-out: MIC value, S.epidermidis TEI_R1, mecA",0.0625 µg/mL
same,MIC,"S. epidermidis; read-out: MIC value, S.epidermidis TEI_R2, mecA",0.25 µg/mL
same,MIC,"E. faecium; read-out: Average MIC value, E. faecium VAN^R,TEI^R/VanA, 8 strains",0.156 µg/mL
same,MIC,"E. faecium; read-out: Average MIC value, E. faecium VAN^S, TEI^S, 1 strain",0.0625 µg/mL
same,MIC,"E. faecium; read-out: MIC value, E.faecium E335, VAN,TEI,LNZ/VanA",0.125 µg/mL
same,MIC,"E. faecium; read-out: MIC value, E.faecium E355, VAN,TEI,LNZ/VanA",0.125 µg/mL
same,MIC,"E. faecium; read-out: MIC value, E.faecium E832, VAN,TEI,LNZ/VanA",0.125 µg/mL
same,MIC,"E. faecium; read-out: MIC value, E.faecium E854, VAN,TEI,LNZ/VanA",0.125 µg/mL
same,MIC,"E. faecium; read-out: MIC value, E.faecium E859, VAN,TEI,LNZ/VanA",0.125 µg/mL
same,MIC,"E. faecium; read-out: MIC value, E.faecium E1114, VAN,TEI,LNZ/VanA",0.5 µg/mL
same,MIC,"E. faecium; read-out: MIC value, E.faecium E1131, VAN,TEI,LNZ/VanA",0.0625 µg/mL
same,MIC,"E. faecium; read-out: MIC value, E.faecium E1132, VAN,TEI,LNZ/VanA",0.0625 µg/mL
same,MIC,"E. faecium; read-out: MIC value, E.faecium TX0016",0.0625 µg/mL
same,Activity against E. faecium strains expressing the VanA resistance phenotype (in words),E. faecium; VanA phenotype,strong activity
same,Outcompeting fluorescent teicoplanin from S. aureus (in words),S. aureus ATCC29213 [4],the most active competitor
same,MIC,[5],128 µg/mL
same,MIC,[6],128 µg/mL
same,CC50,VeroE6 cells,> 100 µM
same,CC50,Calu-3 cells,> 100 µM
same,MIC,"S. haemolyticus; S. haemolyticus mecA, 6 strains, read-out: Average MIC value",0.27 µg/mL
same,MIC,"S. haemolyticus; S.haemolyticus DALB_R1, mecA, read-out: MIC value",0.5 µg/mL
same,MIC,"S. haemolyticus; S.haemolyticus DALB_R2, mecA, read-out: MIC value",0.25 µg/mL
same,MIC,"S. haemolyticus; S.haemolyticus DALB_R3, mecA, read-out: MIC value",0.25 µg/mL
same,MIC,"S. haemolyticus; S.haemolyticus DALB_R4, mecA, read-out: MIC value",0.125 µg/mL
same,MIC,"S. haemolyticus; S.haemolyticus DALB_R5, mecA, read-out: MIC value",0.25 µg/mL
same,MIC,"S. haemolyticus; S.haemolyticus ORI_R1, mecA, read-out: MIC value",0.25 µg/mL
same,MIC,"S. aureus; ATCC 29213 / MSSA, read-out: MIC value, S. aureus ATCC29213, MSSA",0.25 µg/mL
same,MIC,"S. aureus; MRSA / USA300, read-out: MIC value, S. aureus USA300, CA-MRSA",0.125 µg/mL
same,MIC,"S. aureus; MRSA, read-out: Average MIC value, S. aureus CA-MRSA, 1 strain",0.125 µg/mL
same,MIC,"S. aureus; MRSA, read-out: Average MIC value, S. aureus MRSA, 7 strains",0.125 µg/mL
same,MIC,"S. aureus; MRSA, read-out: MIC value, S. aureus 73OL, MRSA",0.125 µg/mL
same,MIC,"S. aureus; MRSA, read-out: MIC value, S. aureus 214OL, MRSA",0.125 µg/mL
same,MIC,"S. aureus; MRSA, read-out: MIC value, S. aureus 1041OL, MRSA",0.125 µg/mL
same,MIC,"S. aureus; MRSA, read-out: MIC value, S. aureus A6918, MRSA",0.125 µg/mL
same,MIC,"S. aureus; MRSA, read-out: MIC value, S. aureus A6919, MRSA",0.125 µg/mL
same,MIC,"S. aureus; MRSA, read-out: MIC value, S. aureus Mu50, MRSA",0.125 µg/mL
same,MIC,"S. aureus; MRSA, read-out: MIC value, S. aureus N315, MRSA",0.125 µg/mL
same,MIC,"S. aureus; MSSA / NEWMAN, read-out: MIC value, S. aureus Newman, MSSA",0.25 µg/mL
same,MIC,"S. aureus; MSSA, read-out: Average MIC value, S. aureus MSSA, 4 strains",0.188 µg/mL
same,MIC,"S. aureus; MSSA, read-out: MIC value, S. aureus MSSA476, MSSA",0.125 µg/mL
same,MIC,"S. aureus; MSSA, read-out: MIC value, S. aureus SA564, MSSA",0.125 µg/mL
same,MIC,"E. faecalis; read-out: Average MIC value, E. faecalis VAN^R,TEI^R/VanA, 1 strain",0.125 µg/mL
same,MIC,"E. faecalis; read-out: Average MIC value, E. faecalis VAN^S, TEI^S, 2 strains",0.125 µg/mL
same,MIC,"E. faecalis; read-out: MIC value, E.faecalis JH2-2",0.125 µg/mL
same,MIC,"E. faecalis; read-out: MIC value, E.faecalis OG1RF",0.125 µg/mL
same,MIC,"E. faecalis; read-out: MIC value, E.faecalis V583, VAN,TEI/VanA",0.125 µg/mL
same,MIC,"S.pyogenes; read-out: MIC value, S.pyogenes H232",0.125 µg/mL
same,MIC,"S.pyogenes; read-out: MIC value, S.pyogenes H550",0.125 µg/mL
same,MIC,"S.pyogenes; read-out: MIC value, S.pyogenes H578",0.125 µg/mL
same,MIC,[7],256 µg/mL
same,CC50,HEL cells,> 100 µM
